Holding throughout (format): cell-based
For one assay, the system named is 3T3 cells. Nature of the assay: MTT cell proliferation assay, 3T3 cells. Particulars: NIH3T3; 3T3 fibroblast cells (Swiss mouse embryo); incubation approximately 64-72 hours. The method, then:
(§1) The MTT cell proliferation assay was used to study the cytotoxic properties of the compounds. The assay was performed according to the method described by Roche Molecular Biochemicals, with minor modifications. The assay is based on the cleavage of the tetrazolium salt, MTT, in the presence of an electron-coupling reagent. The water-insoluble formazan salt produced must be solubilized in an additional step. Cells grown in a 96-well tissue culture plate were incubated with the MTT solution for approximately 4 hours. After this incubation period, a water-insoluble formazan dye formed. After solubilization, the formazan dye was quantitated using a scanning multi-well spectrophotometer (ELISA reader). […] The cells were seeded at 5,000-10,000 cells in each well of 96-well plate in 100 μL of fresh culture medium and were allowed to attach overnight. The stock solutions of the compounds were diluted in 100 μL cell culture medium to obtain eight concentrations of each test compound, ranging from 1 nM to 30 μM. […] All optical densities were measured at 490 nm using a Vmax Kinetic Microplate Reader (Molecular Devices). In most cases, the assay was performed in duplicate and the results were presented as a mean percent inhibition to the negative control±SE. The following formula was used to calculate the percent of inhibition: Inhibition (%)=(1−(ODo/OD))×100.
(§2) The compounds were tested against MS751, Z138 and 3T3 cells. The MS751 cell line is derived from a metastasis to lymph node of human cervix from a patient diagnosed with squameous cell carcinoma of the cervix. The Z138 cell line is a mature B-cell acute lymphoblastic leukemia cell line derived from a patient with chronic lumphocytic leukemia. 3T3 cells are standard fibroblast cells; they were originally isolated from Swiss mouse embryo tissue.

For the next assay, the system named is Z138 cells. Nature of the assay: MTT cell proliferation assay, Z138 cells. The conditions noted are these: Homo sapiens, Z-138; Z138 cells (mantle cell lymphoma line); incubation approximately 64-72 hours. The protocol: as §1, §2
For orientation: Tetrazolium dyes change colour on reduction, which living cells bring about.

The next assay concerns MS751 cells. Nature of the assay: MTT cell proliferation assay, MS751 cells. The conditions noted are these: MS751 cells (human cervix squamous cell carcinoma metastasis); incubation approximately 64-72 hours; read-out: MTT Assay IC50 MS 751. The protocol:
as §1, §2

Structures are written as SMILES. Some results are limits rather than exact numbers.

With `Nc1ccc(/C=C/C(=O)NCc2cc3cc(-c4ccc(C(=O)N5CCOCC5)cc4)cc(Cl)c3s2)cn1` [compound 500, (E)-3-(6-aminopyridin-3-yl)-N-((7-chloro-5-(4-(morpholine-4-carbonyl)phenyl)benzo[b]thiophen-2-yl)methyl)acrylamide], the IC50 (usually the concentration at which inhibition is half-maximal) with 3T3 cells was > 10 µM; in the assay with Z138 cells, < 1000 nM; in the assay with MS751 cells it was < 1000 nM.

On to `Nc1ccc(/C=C/C(=O)NCc2cc3cc(-c4ccc(C(=O)N5CCC(F)(F)CC5)cn4)cc(C(F)(F)F)c3[nH]2)cn1` [compound 501, (E)-3-(6-aminopyridin-3-yl)-N-((5-(5-(4,4-difluoropiperidine-1-carbonyl)pyridin-2-yl)-7-(trifluoromethyl)-1H-indol-2-yl)methyl)acrylamide], for which the concentration for half-maximal inhibition (IC50) is > 10 µM with 3T3 cells, > 10000 nM in the assay with Z138 cells and > 10000 nM in the assay on MS751 cells.

In the case of `Cn1c(CNC(=O)/C=C/c2ccc(N)nc2)cc2cc(-c3ccc(C(=O)N4CCC(F)(F)CC4)cn3)cc(C(F)(F)F)c21` [compound 502, (E)-3-(6-aminopyridin-3-yl)-N-((5-(5-(4,4-difluoropiperidine-1-carbonyl)pyridin-2-yl)-1-methyl-7-(trifluoromethyl)-1H-indol-2-yl)methyl)acrylamide], the IC50 in the assay with 3T3 cells is > 10 µM; in the assay on Z138 cells, > 10000 nM; in the assay on MS751 cells it was > 10000 nM.

Take `Nc1ccc(/C=C/C(=O)NCc2cc3cc(-c4ccc(C(=O)N5CCC(F)(F)CC5)cn4)cc(C(F)(F)F)c3s2)cn1` [compound 503, (E)-3-(6-aminopyridin-3-yl)-N-((5-(5-(4,4-difluoropiperidine-1-carbonyl)pyridin-2-yl)-7-(trifluoromethyl)benzo[b]thiophen-2-yl)methyl)acrylamide]: the IC50 was > 10 µM with 3T3 cells, 1000 to 5000 nM in the assay with Z138 cells and 1000 to 5000 nM in the assay on MS751 cells.

Regarding `Nc1ccc(/C=C/C(=O)NCc2cc3cc(-c4ccc(C(=S)N5CCC(F)(F)CC5)cn4)cc(C(F)(F)F)c3s2)cn1` [compound 504, (E)-3-(6-aminopyridin-3-yl)-N-((5-(5-(4,4-difluoropiperidine-1-carbonothioyl)pyridin-2-yl)-7-(trifluoromethyl)benzo[b]thiophen-2-yl)methyl)acrylamide], the concentration for half-maximal inhibition (IC50) with 3T3 cells was > 10 µM; with Z138 cells, < 1000 nM; in the assay with MS751 cells, < 1000 nM.

Regarding `Nc1ccc(/C=C/C(=O)NCc2cc3cc(-c4ccc(C(=O)N5CCC(O)(C(F)(F)F)CC5)cn4)cc(C(F)(F)F)c3s2)cn1` [compound 505, (E)-3-(6-aminopyridin-3-yl)-N-((5-(5-(4-hydroxy-4-(trifluoromethyl)piperidine-1-carbonyl)pyridin-2-yl)-7-(trifluoromethyl)benzo[b]thiophen-2-yl)methyl)acrylamide], the values for the concentration for half-maximal inhibition (IC50) in the assay on 3T3 cells, with Z138 cells and in the assay on MS751 cells were > 10 µM, 1000 to 5000 nM and 1000 to 5000 nM, respectively.

Take `Nc1ccc(/C=C/C(=O)NCc2cc3cc(-c4ccc(C(=O)N5CCOCC5)cn4)cc(C(F)(F)F)c3s2)cn1` [compound 506, (E)-3-(6-aminopyridin-3-yl)-N-((5-(5-(morpholine-4-carbonyl)pyridin-2-yl)-7-(trifluoromethyl)benzo[b]thiophen-2-yl)methyl)acrylamide]: the half-maximal inhibitory concentration (IC50) in the assay on 3T3 cells is > 10 µM; in the assay with Z138 cells, 1000 to 5000 nM; in the assay on MS751 cells, 1000 to 5000 nM.

As for `CC1(F)CCN(C(=O)c2ccc(-c3cc(C(F)(F)F)c4sc(CNC(=O)/C=C/c5ccc(N)nc5)cc4c3)nc2)C1` (stereo not drawn) [compound 507, (E)-3-(6-aminopyridin-3-yl)-N-((5-(5-(3-fluoro-3-methylpyrrolidine-1-carbonyl)pyridin-2-yl)-7-(trifluoromethyl)benzo[b]thiophen-2-yl)methyl)acrylamide], the IC50 in the assay with 3T3 cells is > 10 µM; in the assay with Z138 cells it was 1000 to 5000 nM; in the assay on MS751 cells, 1000 to 5000 nM.

Consider `CC1(C)COCCN1C(=O)c1ccc(-c2cc(C(F)(F)F)c3sc(CNC(=O)/C=C/c4ccc(N)nc4)cc3c2)nc1` [compound 508, (E)-3-(6-aminopyridin-3-yl)-N-((5-(5-(3,3-dimethylmorpholine-4-carbonyl)pyridin-2-yl)-7-(trifluoromethyl)benzo[b]thiophen-2-yl)methyl)acrylamide], for which the 50% inhibitory concentration (IC50) with 3T3 cells was > 10 µM; in the assay with Z138 cells, 1000 to 5000 nM; in the assay on MS751 cells, 1000 to 5000 nM.

Turning to `Nc1ccc(/C=C/C(=O)NCc2cc3cc(-c4ccc(C(=O)N5CCC(O)(C(F)(F)F)C5)cn4)cc(C(F)(F)F)c3s2)cn1` (stereo not drawn) [compound 509, (E)-3-(6-aminopyridin-3-yl)-N-((5-(5-(3-hydroxy-3-(trifluoromethyl)pyrrolidine-1-carbonyl)pyridin-2-yl)-7-(trifluoromethyl)benzo[b]thiophen-2-yl)methyl)acrylamide], the values for the IC50 in the assay on 3T3 cells, with Z138 cells and in the assay on MS751 cells were > 10 µM, < 1000 nM and 1000 to 5000 nM, respectively.

For `Nc1ccc(/C=C/C(=O)NCc2cc3cc(-c4ccc(C(=O)N5CCC(F)(F)C5)cn4)cc(C(F)(F)F)c3s2)cn1` [compound 510, (E)-3-(6-aminopyridin-3-yl)-N-((5-(5-(3,3-difluoropyrrolidine-1-carbonyl)pyridin-2-yl)-7-(trifluoromethyl)benzo[b]thiophen-2-yl)methyl)acrylamide], the half-maximal inhibitory concentration (IC50) with 3T3 cells is > 10 µM; with Z138 cells, 1000 to 5000 nM; in the assay with MS751 cells, 1000 to 5000 nM.

Turning to `Nc1ccc(/C=C/C(=O)NCc2cc3cc(-c4ccc(C(=O)N5CC6(COC6)C5)cn4)cc(C(F)(F)F)c3s2)cn1` [compound 511, (E)-N-((5-(5-(2-oxa-6-azaspiro[3.3]heptane-6-carbonyl)pyridin-2-yl)-7-(trifluoromethyl)benzo[b]thiophen-2-yl)methyl)-3-(6-aminopyridin-3-yl)acrylamide], the IC50 with 3T3 cells is > 10 µM; in the assay on Z138 cells, < 1000 nM; in the assay on MS751 cells it was < 1000 nM.

Take `Nc1ccc(/C=C/C(=O)NCc2cc3cc(-c4ccc(C(=O)N5CC(F)(F)C5)cn4)cc(C(F)(F)F)c3s2)cn1` [compound 512, (E)-3-(6-aminopyridin-3-yl)-N-((5-(5-(3,3-difluoroazetidine-1-carbonyl)pyridin-2-yl)-7-(trifluoromethyl)benzo[b]thiophen-2-yl)methyl)acrylamide]: the 50% inhibitory concentration (IC50) in the assay with 3T3 cells is 5 to 10 µM; in the assay on Z138 cells, < 1000 nM; with MS751 cells it was 1000 to 5000 nM.

`Nc1ccc(/C=C/C(=O)NCc2cc3cc(-c4ccc(C(=O)N5CC[C@H](F)C5)cn4)cc(C(F)(F)F)c3s2)cn1` [compound 513, (S,E)-3-(6-aminopyridin-3-yl)-N-((5-(5-(3-fluoropyrrolidine-1-carbonyl)pyridin-2-yl)-7-(trifluoromethyl)benzo[b]thiophen-2-yl)methyl)acrylamide]: the values for the IC50 in the assay on 3T3 cells, with Z138 cells and in the assay with MS751 cells were 5 to 10 µM, 1000 to 5000 nM and 1000 to 5000 nM, respectively.

Turning to `CC1(C)CN(C(=O)c2ccc(-c3cc(C(F)(F)F)c4sc(CNC(=O)/C=C/c5ccc(N)nc5)cc4c3)nc2)CCO1` [compound 514, (E)-3-(6-aminopyridin-3-yl)-N-((5-(5-(2,2-dimethylmorpholine-4-carbonyl)pyridin-2-yl)-7-(trifluoromethyl)benzo[b]thiophen-2-yl)methyl)acrylamide], the IC50 in the assay with 3T3 cells was > 10 µM; in the assay with Z138 cells it was < 1000 nM; in the assay on MS751 cells, 1000 to 5000 nM.

For `Nc1ccc(/C=C/C(=O)NCc2cc3cc(-c4ccc(C(=O)N5CC6(C5)CC(F)(F)C6)cn4)cc(C(F)(F)F)c3s2)cn1` [compound 515, (E)-3-(6-aminopyridin-3-yl)-N-((5-(5-(6,6-difluoro-2-azaspiro[3.3]heptane-2-carbonyl)pyridin-2-yl)-7-(trifluoromethyl)benzo[b]thiophen-2-yl)methyl)acrylamide], the IC50 in the assay with 3T3 cells was > 10 µM; with Z138 cells, < 1000 nM; in the assay with MS751 cells it was < 1000 nM.

Consider `CC1(O)CCN(C(=O)c2ccc(-c3cc(C(F)(F)F)c4sc(CNC(=O)/C=C/c5ccc(N)nc5)cc4c3)nc2)CC1` [compound 516, (E)-3-(6-aminopyridin-3-yl)-N-((5-(5-(4-hydroxy-4-methylpiperidine-1-carbonyl)pyridin-2-yl)-7-(trifluoromethyl)benzo[b]thiophen-2-yl)methyl)acrylamide], for which the figures for the 50% inhibitory concentration (IC50) in the assay on 3T3 cells, in the assay on Z138 cells and with MS751 cells were > 10 µM, < 1000 nM and 1000 to 5000 nM, respectively.

On to `Nc1ccc(/C=C/C(=O)NCc2cc3cc(-c4ccc(C(=O)N5CCC(F)CC5)cn4)cc(C(F)(F)F)c3s2)cn1` [compound 517, (E)-3-(6-aminopyridin-3-yl)-N-((5-(5-(4-fluoropiperidine-1-carbonyl)pyridin-2-yl)-7-(trifluoromethyl)benzo[b]thiophen-2-yl)methyl)acrylamide], for which the concentration for half-maximal inhibition (IC50) was > 10 µM with 3T3 cells, 1000 to 5000 nM in the assay on Z138 cells and 1000 to 5000 nM in the assay with MS751 cells.

For the origin of these results see US20170369470A1, “Cyclic Compounds and Uses Thereof” (Karyopharm Therapeutics Inc., priority 2014, published 2017).
